According to publication PMC3423582 (Bioorganic & medicinal chemistry letters, 2012):
“Also recorded” adds a separate entry of the source.

What was measured:
BJ-TERT/LT/ST/RAS^V12 [1] = assay: Lethality; format: cell-based; details: ratio of LC50 values
[2] = system: seven cell lines (MCF7, HT-1080, U2OS, RKO, H1299, BJ-TERT, BJ-TERT/LT/ST/RAS^V12); assay: Lethality across the panel of seven cell lines; format: cell-based; details: summary of Table 1
BJ-TERT/LT/ST/RAS^V12 [3] = assay: Kinetic analysis of induced cell death; format: cell-based; details: treated at the LC90 (30 µM)
BJ-TERT/LT/ST/RAS^V12 [4] = assay: Cell death by photograph after 24 hours; format: cell-based; details: compound 27 30 µM, staurosporine 1 µM
BJ-TERT [5] = assay: Cell death by photograph after 24 hours; format: cell-based; details: compound 27 30 µM, staurosporine 1 µM
[6] = system: caspase 3/7 in BJ-TERT/LT/ST/RAS^V12 cells; assay: Caspase 3/7 activation; format: cell-based; details: 28 hours, two-fold 14-point dilution series, Apo-ONE
[7] = system: caspase 3/7 in BJ-TERT cells; assay: Caspase 3/7 activation; format: cell-based; details: 28 hours, two-fold 14-point dilution series, Apo-ONE
HT1080 cells = assay: Modulatory profiling: suppression of lethality by biologically active compounds; format: cell-based, human; details: z-VAD-fmk (45 µM) or Boc-D-fmk (50 µM)
BJ-TERT [8] = details: read-out: EC50 (BJ-TERT); cited from earlier work
BJ-TERT/LT/ST/RAS^V12 [9] = details: read-out: EC50 (BJ-TERT/LT/ST/RAS^V12); cited from earlier work

**Q.** What does the source list for `CN1C(=O)C(C2NC=Cc3c2[nH]c2ccccc32)C(=O)N(C)C1=O` (centres unmarked) [Compound 2a, 5-(2,9-dihydro-1H-pyrido[3,4-b]indol-1-yl)-1,3-dimethylpyrimidine-2,4,6(1H,3H,5H)-trione]?
**A.** Enhancement of lethality compared with compound 1 in BJ-TERT/LT/ST/RAS^V12 (BJ-TERT/LT/ST/RAS^V12 [1]): two-fold more lethal; Lethality across the seven cell lines (in words) [2]: showed lethality in at least five cell lines

**Q.** With `CN1C(=O)C(Cc2nccc3c4ccccc4n(C)c23)C(=O)N(C)C1=O` [Compound 8] as the compound, how does the “Lethality across the seven cell lines (in words)” value [2] read?
**A.** slightly more active

**Q.** For `CC(C)(C)OC(=O)N1CCc2c(n(C(=O)OC(C)(C)C)c3ccccc23)C1CC=O` (centres unmarked) [Compound 13], which “Lethality across the seven cell lines (in words)” value [2] is on record?
**A.** showed lethality in at least five cell lines

**Q.** Which “Lethality across the seven cell lines (in words)” value [2] does the source give for `CC(C=O)C1c2c(c3ccccc3n2C(=O)OC(C)(C)C)CCN1C(=O)OC(C)(C)C` (centres unmarked) [Compound 20] here?
**A.** showed lethality in at least five cell lines

**Q.** With `CC(CC1C(=O)N(C)C(=O)N(C)C1=O)C1c2c(c3ccccc3n2C(=O)OC(C)(C)C)CCN1C(=O)OC(C)(C)C` (centres unmarked) [Compound 21] as the compound, how does the “Lethality across the seven cell lines (in words)” value [2] read?
**A.** modest to good potency in six cell lines; also recorded: showed lethality in at least five cell lines

**Q.** For `CCOC(=O)C1c2c(c3ccccc3n2C)CCN1C(=O)OC` (centres unmarked) [Compound 27], which “Enhancement of lethality compared with compound 1 in BJ-TERT/LT/ST/RAS^V12” value (BJ-TERT/LT/ST/RAS^V12 [1]) is on record?
**A.** four fold enhancement

**Q.** What about the “Time at which compound started to kill cells” value (BJ-TERT/LT/ST/RAS^V12 [3]) of the same compound?
**A.** ≤ 12 h

**Q.** What about the “Time to complete cell death” value (BJ-TERT/LT/ST/RAS^V12 [3]) of the same compound?
**A.** ≤ 24 h

**Q.** What about the “Cell death in BJ-TERT/LT/ST/RAS^V12 cells” value (BJ-TERT/LT/ST/RAS^V12 [4]) of the same compound?
**A.** observed only in BJ-TERT/LT/ST/RAS^V12 cells

**Q.** And the “Cell death in BJ-TERT cells” value (BJ-TERT [5])?
**A.** not BJ-TERT

**Q.** And the “Caspase 3/7 activation in BJ-TERT/LT/ST/RAS^V12” value [6]?
**A.** failed to induced caspase 3/7 activation

**Q.** What about the “Caspase 3/7 activation in BJ-TERT” value [7] of the same compound?
**A.** does not induce caspase activation

**Q.** What about the “Effect of caspase inhibitors on the compound's lethality” value (HT1080 cells) of the same compound?
**A.** not inhibited

**Q.** And the “Lethality across the seven cell lines (in words)” value [2]?
**A.** showed lethality in at least five cell lines; also recorded: effective in inducing cell death in six out of seven cell lines

**Q.** Which “Lethality across the seven cell lines (in words)” value [2] does the source give for `CCOC(=O)C1c2[nH]c3ccccc3c2CCN1C(=O)OCc1ccccc1` (centres unmarked) [Compound 29] here?
**A.** showed lethality in at least five cell lines

**Q.** With `COC(OC)C1c2[nH]c3ccccc3c2CCN1C(=O)OCc1ccccc1` (centres unmarked) [Compound 34] as the compound, how does the “Lethality across the seven cell lines (in words)” value [2] read?
**A.** showed lethality in at least five cell lines

**Q.** Which EC50 (BJ-TERT [8]) does the source give for `COC(=O)c1ccc(C2c3[nH]c4ccccc4c3CC(C(=O)OC)N2C(=O)CCl)cc1` (centres unmarked) [RSL3] here?
**A.** 2.8 µM

**Q.** And the EC50 (BJ-TERT/LT/ST/RAS^V12 [9])?
**A.** 0.365 µM

**Q.** With `CN[C@@H]1C[C@H]2O[C@@](C)([C@@H]1OC)n1c3ccccc3c3c4c(c5c6ccccc6n2c5c31)C(=O)NC4` [Staurosporine, reference compound] as the compound, how does the “Cell death in BJ-TERT/LT/ST/RAS^V12 cells” value (BJ-TERT/LT/ST/RAS^V12 [4]) read?
**A.** induced cell death

**Q.** What about the “Cell death in BJ-TERT cells” value (BJ-TERT [5]) of the same compound?
**A.** induced cell death

**Q.** Which EC50 (BJ-TERT [8]) does the source give for `CCOc1ccccc1-n1c(C(C)N2CCN(C(=O)COc3ccc(Cl)cc3)CC2)nc2ccccc2c1=O` (centres unmarked) [erastin] here?
**A.** 23.7 µM

**Q.** What about the EC50 (BJ-TERT/LT/ST/RAS^V12 [9]) of the same compound?
**A.** 3.9 µM
